Assays:
Test in all cases: Ba/F3 cell drug screening, Cell Titer Glo
Type in all cases: cell-based
EGFR E709A G719S = target: T1, EGFR E709A G719S (Homo sapiens, UniProt P00533, E709A/G719S); details: Ba/F3 cells expressing EGFR E709A G719S; 72 hours
T1 construct: expressed in transfected cells; host or cells: Ba/F3 (retroviral transduction, pBabe-Puro based vectors)
Procedure, shortened: (§1)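 Ba/F3 cells stably expressing mutant EGFR (retroviral, puromycin-selected, FACS-sorted for EGFR) were kept in 1 ng/ml EGF without IL-3. Cells were exposed to seven TKI concentrations or DMSO for 72 hours, viability measured by CellTiter-Glo, normalized to DMSO, and IC50 interpolated from variable-slope fits.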

EGFR E709K L858R = target: T2, EGFR E709K L858R (Homo sapiens, UniProt P00533, E709K/L858R); details: Ba/F3 cells expressing EGFR E709K L858R; 72 hours
T2 construct: expressed in transfected cells; host or cells: Ba/F3 (retroviral, pBabe-Puro based vector)
Procedure, shortened: as §1

EGFR E709_T710del insD = target: T3, EGFR E709_T710del insD (Homo sapiens, UniProt P00533, DEL709-709/T710D); details: Ba/F3 cells expressing EGFR E709_T710del insD; 72 hours
T3 construct: expressed in transfected cells; host or cells: Ba/F3 (retroviral transduction, pBabe-Puro based vectors)
Procedure, shortened: as §1

EGFR Ex19del = target: T4, EGFR Ex19del (Homo sapiens, UniProt P00533, DEL746-750); details: Ba/F3 cells expressing EGFR Ex19del; 72 hours
T4 construct: expressed in transfected cells; host or cells: Ba/F3 (retroviral, pBabe-Puro based vector)
Procedure, shortened: as §1

EGFR Ex19del L718V = target: T5, EGFR Ex19del L718V (Homo sapiens, UniProt P00533, DEL746-750/L718V); details: Ba/F3 cells expressing EGFR Ex19del L718V; 72 hours
T5 construct: expressed in transfected cells; host or cells: Ba/F3 (murine pro-B cells), retroviral transduction with pBabe-Puro based vectors
Procedure, shortened: as §1

EGFR Ex19del T790M C797S = target: T6, EGFR Ex19del T790M C797S (Homo sapiens, UniProt P00533, C797S/DEL746-750/T790M); details: Ba/F3 cells expressing EGFR Ex19del T790M C797S; 72 hours
T6 construct: expressed in transfected cells; host or cells: Ba/F3 (retroviral transduction, pBabe-Puro based vectors)
Procedure, shortened: as §1

EGFR Ex19del/T790M/L792H = target: T7, EGFR Ex19del/T790M/L792H (Homo sapiens, UniProt P00533, DEL746-750/L792H/T790M); details: Ba/F3 cells expressing EGFR Ex19del/T790M/L792H; 72 hours
T7 construct: expressed in transfected cells; host or cells: Ba/F3 (retroviral transduction, pBabe-Puro based vectors)
Procedure, shortened: as §1

EGFR G724S = target: T8, EGFR G724S (Homo sapiens, UniProt P00533, G724S); details: Ba/F3 cells expressing EGFR G724S; 72 hours
T8 construct: expressed in transfected cells; host or cells: Ba/F3 (retroviral transduction, pBabe-Puro based vectors)
Procedure, shortened: as §1

EGFR L718V = target: T9, EGFR L718V (Homo sapiens, UniProt P00533, L718V); details: Ba/F3 cells expressing EGFR L718V; 72 hours
T9 construct: expressed in transfected cells; host or cells: Ba/F3 (retroviral transduction, pBabe-Puro based vectors)
Procedure, shortened: as §1

[1] = target: T10, EGFR L747_K754del insATSPE (Homo sapiens, UniProt P00533, DEL747-749/K754E); details: Ba/F3 cells expressing EGFR L747_K754del insATSPE; 72 hours
T10 construct: expressed in transfected cells; host or cells: Ba/F3 (retroviral, pBabe-Puro based vector)
Procedure, shortened: as §1

EGFR L861R = target: T11, EGFR L861R (Homo sapiens, UniProt P00533, L861R); details: Ba/F3 cells expressing EGFR L861R; 72 hours
T11 construct: expressed in transfected cells; host or cells: Ba/F3 (retroviral, pBabe-Puro based vector; created by GeneScript from EGFR WT)
Procedure, shortened: as §1

EGFR N771dupN G724S = target: T12, EGFR N771dupN G724S (Homo sapiens, UniProt P00533, DUP771-771/G724S); details: Ba/F3 cells expressing EGFR N771dupN G724S; 72 hours
T12 construct: expressed in transfected cells; host or cells: Ba/F3 (retroviral, pBabe-Puro based vector; created by GeneScript from EGFR G724S, c.2313_2314insAAC)
Procedure, shortened: as §1

EGFR S768I/T790M = target: T13, EGFR S768I/T790M (Homo sapiens, UniProt P00533, S768I/T790M); details: Ba/F3 cells expressing EGFR S768I/T790M; 72 hours
T13 construct: expressed in transfected cells; host or cells: Ba/F3 (retroviral transduction, pBabe-Puro based vectors)
Procedure, shortened: as §1

EGFR S768dupSVD = target: T14, EGFR S768dupSVD (Homo sapiens, UniProt P00533, DUP768-770); details: Ba/F3 cells expressing EGFR S768dupSVD; 72 hours
T14 construct: expressed in transfected cells; host or cells: Ba/F3 (retroviral, pBabe-Puro based vector)
Procedure, shortened: as §1

EGFR V769L = target: T15, EGFR V769L (Homo sapiens, UniProt P00533, V769L); details: Ba/F3 cells expressing EGFR V769L; 72 hours
T15 construct: expressed in transfected cells; host or cells: Ba/F3 (retroviral transduction, pBabe-Puro based vectors)
Procedure, shortened: as §1

## C=CC(=O)N1CCC(Oc2cc3c(Nc4ccc(Cl)c(Cl)c4F)ncnc3cc2OC)CC1 [Poziotinib]
EGFR E709A G719S
  Response of Cells Comprising PACC EGFR Mutations to Second-Generation TKIs: 0.01612
EGFR E709K L858R
  Response of Cells Comprising Classical-Like EGFR Mutations to Second-Generation TKIs: 0.005342
EGFR E709_T710del insD
  Response of Cells Comprising PACC EGFR Mutations to Second-Generation TKIs: 0.06231
EGFR Ex19del
  Response of Cells Comprising Classical-Like EGFR Mutations to Second-Generation TKIs: 0.07456
EGFR Ex19del L718V
  Response of Cells Comprising PACC EGFR Mutations to Second-Generation TKIs: 0.003363
EGFR Ex19del T790M C797S
  Response of Cells Comprising T790M-like-R EGFR Mutations to Second-Generation TKIs: 1862
EGFR Ex19del/T790M/L792H
  Response of Cells Comprising T790M-like-R EGFR Mutations to Second-Generation TKIs: 2157
EGFR G724S
  Response of Cells Comprising PACC EGFR Mutations to Second-Generation TKIs: 0.2246
EGFR L718V
  Response of Cells Comprising PACC EGFR Mutations to Second-Generation TKIs: 0.2403
[1]
  Response of Cells Comprising T790M-like-S EGFR Mutations to Second-Generation TKIs: 0.8493
EGFR L861R
  Response of Cells Comprising Classical-Like EGFR Mutations to Second-Generation TKIs: 0.01648
EGFR N771dupN G724S
  Response of Cells Comprising Ex20ins EGFR Mutations to Poziotinib: 0.2167
EGFR S768I/T790M
  Response of Cells Comprising T790M-like-S EGFR Mutations to Second-Generation TKIs: 2.935
EGFR S768dupSVD
  Response of Cells Comprising Ex20ins EGFR Mutations to Poziotinib: 0.09327
EGFR V769L
  Response of Cells Comprising PACC EGFR Mutations to Second-Generation TKIs: 0.05673
